Values quoted from earlier work, collected in patent US20100136096A1, “Systems for modulating inflammation” (Searete LLC, a limited liability corporation of the State …, priority 2008, published 2010).
One block for each molecule: values may come before it.

Experiments:
Src family kinase = conditions: Sanjuan et al. 2006
lethal septic shock = conditions: mice; Nakamura et al. 2007
[1] = single agent, 400 mg infused over one hour; Looareesuwan et al. 1986
[2] = test system: Src family kinases (Src, Lck, Yes, Fyn); conditions: at nanomolar concentrations
proteasomal activity = conditions: cultured breast cancer cells; disulfiram bound to copper; Chen et al. 2006

inhibition of CpG-induced Src family kinase activation, or its dependent cellular responses (Src family kinase): does not inhibit
SMILES: CCN(CC)CCCC(C)Nc1ccnc2cc(Cl)ccc12 (stereo not drawn) [Chloroquine]

SMILES: Cl.Cl.Nc1ccccc1Oc1ccc2c(N)nsc2c1 [Example M62812, 3-amino-6-(2-aminophenoxy)-1,2-benzisothiazole dihydrochloride]
prevention of lethal septic shock (lethal septic shock): prevents lethal septic shock

SMILES: CCN(CC)CCCC(C)Nc1ccnc2cc(Cl)ccc12.O=P(O)(O)O.O=P(O)(O)O (stereo not drawn) [chloroquine phosphate, 7-chloro-4-[[4-(diethylamino)-1-methylbutyl]amino]quinoline phosphate (1:2)]
tolerability of intravenous infusion [1]: without complication

SMILES: Cc1nc(Nc2ncc(C(=O)Nc3c(C)cccc3Cl)s2)cc(N2CCN(CCO)CC2)n1.O [dasatinib, N-(2-chloro-6-methylphenyl)-2-[[6-[4-(2-hydroxyethyl)-1-piperazinyl]-2-methyl-4-pyrimidinyl]amino]-5-thiazolecarboxamide, monohydrate]
inhibition of Src family kinases (Src, Lck, Yes, Fyn) [2]: inhibits

SMILES: CCN(CC)C(=S)SSC(=S)N(CC)CC [disulfiram, 1-(diethylthiocarbamoyldisulfanyl)-N,N-diethyl-methanethioamide]
proteasomal activity (proteasomal activity): inhibits proteasomal activity | inhibition of aldehyde dehydrogenase (aldehyde dehydrogenase): inhibits aldehyde dehydrogenase without toxicity
